Assays:
Experiment in all cases: competitive isoTOP-ABPP
Type in all cases: binding
[1] = target: T1, GABARAPL2 Gamma-aminobutyric acid receptor-associated protei (Homo sapiens, UniProt P60520); settings: for R value (DMSO/fragment) for probe 1 labeling: P60520_K46; for R value (DMSO/fragment) for probe 1 labeling / isoTOP-ABPP reactivity ratio at lysine P60520_K46 / isoTOP-ABPP ratio (R) at liganded lysine P60520_K46: 50 uM, in vitro; for R value (DMSO/fragment) for probe 1 labeling / isoTOP-ABPP reactivity ratio at lysine P60520_K46: 231 sol; for isoTOP-ABPP ratio (R) at liganded lysine P60520_K46: sol, 231
T1 construct: isoTOP-ABPP experiments performed in cell lysates (in vitro); endogenous in cells; host or cells: soluble proteome of human cancer cell lines (MDA-MB-231, Ramos, Jurkat)
T1 sequence (P60520 1-116 limits assumed): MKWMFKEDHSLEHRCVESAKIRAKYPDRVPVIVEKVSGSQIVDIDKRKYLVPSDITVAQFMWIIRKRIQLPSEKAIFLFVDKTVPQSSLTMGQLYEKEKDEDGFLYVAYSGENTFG
Summary of the method: (§1)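 Competition format: fragment (50 μM activated ester, 100 μM guanidinylating agent) versus vehicle in lysate, then lysine probe STP-alkyne at 0.1 mM for 1 h. Quantitation by light/heavy TEV-tag MS1 peak areas, reported as R.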

[2] = target: T2, NLN Neurolysin, mitochondrial (Homo sapiens, UniProt Q9BYT8); settings: for R value (DMSO/fragment) for probe 1 labeling: Q9BYT8_K253; for R value (DMSO/fragment) for probe 1 labeling / isoTOP-ABPP reactivity ratio at lysine Q9BYT8_K253 / isoTOP-ABPP ratio (R) at liganded lysine Q9BYT8_K253: 50 uM, in vitro; for R value (DMSO/fragment) for probe 1 labeling / isoTOP-ABPP reactivity ratio at lysine Q9BYT8_K253: 231 sol; for isoTOP-ABPP ratio (R) at liganded lysine Q9BYT8_K253: sol, 231
T2 construct: isoTOP-ABPP experiments performed in cell lysates (in vitro); endogenous in cells; host or cells: soluble proteome of human cancer cell lines (MDA-MB-231; Ramos and Jurkat also prepared)
T2 sequence (Q9BYT8 38-704): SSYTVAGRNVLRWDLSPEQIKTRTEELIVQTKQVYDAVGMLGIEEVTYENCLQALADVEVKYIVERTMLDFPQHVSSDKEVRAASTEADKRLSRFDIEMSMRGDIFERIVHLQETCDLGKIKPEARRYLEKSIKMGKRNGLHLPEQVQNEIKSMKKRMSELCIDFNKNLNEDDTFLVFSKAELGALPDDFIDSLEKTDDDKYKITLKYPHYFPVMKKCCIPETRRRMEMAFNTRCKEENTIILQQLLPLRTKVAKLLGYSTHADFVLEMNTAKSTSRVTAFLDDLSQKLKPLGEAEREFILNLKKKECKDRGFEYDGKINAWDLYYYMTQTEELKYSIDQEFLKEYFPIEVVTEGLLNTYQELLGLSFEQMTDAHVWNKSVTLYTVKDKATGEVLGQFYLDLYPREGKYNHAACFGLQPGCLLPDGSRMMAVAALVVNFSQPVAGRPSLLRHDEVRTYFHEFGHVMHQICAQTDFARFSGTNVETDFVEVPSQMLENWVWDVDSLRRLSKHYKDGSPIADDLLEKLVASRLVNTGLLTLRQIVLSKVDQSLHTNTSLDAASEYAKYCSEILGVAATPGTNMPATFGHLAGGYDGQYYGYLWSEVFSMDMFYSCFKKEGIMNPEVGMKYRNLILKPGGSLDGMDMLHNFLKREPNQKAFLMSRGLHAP
Summary of the method: as §1

[3] = target: T3, EEF1G Elongation factor 1-gamma (Homo sapiens, UniProt P26641); settings: for isoTOP-ABPP reactivity ratio at lysine P26641_K227 / isoTOP-ABPP ratio (R) at liganded lysine P26641_K227: 50 uM, in vitro; for isoTOP-ABPP reactivity ratio at lysine P26641_K227: 231 sol; for isoTOP-ABPP ratio (R) at liganded lysine P26641_K227: sol, 231
T3 construct: isoTOP-ABPP experiments performed in cell lysates (in vitro); endogenous in cells; host or cells: soluble proteome of human cancer cell lines (MDA-MB-231; Ramos and Jurkat also prepared)
T3 sequence (P26641 whole entry): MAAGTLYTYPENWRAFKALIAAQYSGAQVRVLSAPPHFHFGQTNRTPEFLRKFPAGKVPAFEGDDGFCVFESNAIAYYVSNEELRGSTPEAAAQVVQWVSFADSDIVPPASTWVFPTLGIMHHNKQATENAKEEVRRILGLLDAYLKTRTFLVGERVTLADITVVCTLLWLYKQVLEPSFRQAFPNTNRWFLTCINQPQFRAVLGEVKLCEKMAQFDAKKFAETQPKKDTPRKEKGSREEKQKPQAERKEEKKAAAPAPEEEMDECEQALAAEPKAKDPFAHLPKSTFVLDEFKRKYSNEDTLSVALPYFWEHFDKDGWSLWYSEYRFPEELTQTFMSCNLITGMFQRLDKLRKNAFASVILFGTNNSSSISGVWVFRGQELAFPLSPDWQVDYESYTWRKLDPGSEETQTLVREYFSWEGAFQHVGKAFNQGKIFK
Summary of the method: as §1

[4] = target: T4, SLC25A5 ADP/ATP translocase 2 (Homo sapiens, UniProt P05141); settings: for isoTOP-ABPP reactivity ratio at lysine P05141_K23 / isoTOP-ABPP ratio (R) at liganded lysine P05141_K23: 50 uM, in vitro; for isoTOP-ABPP reactivity ratio at lysine P05141_K23: 231 sol; for isoTOP-ABPP ratio (R) at liganded lysine P05141_K23: sol, 231
T4 construct: isoTOP-ABPP experiments performed in cell lysates (in vitro); endogenous in cells; host or cells: MDA-MB-231 soluble lysate
T4 sequence (P05141 1-298): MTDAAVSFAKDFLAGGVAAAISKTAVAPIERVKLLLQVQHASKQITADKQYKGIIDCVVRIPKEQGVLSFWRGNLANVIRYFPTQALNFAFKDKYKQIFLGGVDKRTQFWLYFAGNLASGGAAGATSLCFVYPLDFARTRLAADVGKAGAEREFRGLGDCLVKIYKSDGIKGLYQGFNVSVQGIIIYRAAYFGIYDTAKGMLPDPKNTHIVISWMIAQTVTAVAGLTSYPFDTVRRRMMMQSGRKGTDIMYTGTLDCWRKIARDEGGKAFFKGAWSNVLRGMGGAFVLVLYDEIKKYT
Summary of the method: as §1

O=C(CCc1cn(-c2ccccc2)nc1-c1ccccc1)Oc1c(F)c(F)c(F)c(F)c1F [fragment 19, Pentafluorophenyl 3-(1,3-diphenyl-1H-pyrazol-4-yl)propanoate]
R value (DMSO/fragment) for probe 1 labeling [1]: 1.2 | R value (DMSO/fragment) for probe 1 labeling [2]: 1.0

Cn1cc(CC(=O)Oc2c(F)c(F)c(F)c(F)c2F)c2ccccc21 [fragment 22, Pentafluorophenyl 2-(1-methyl-1H-indol-3-yl)acetate]
R value (DMSO/fragment) for probe 1 labeling [1]: 0.8 | R value (DMSO/fragment) for probe 1 labeling [2]: 1.5

O=C(Oc1c(F)c(F)c(F)c(F)c1F)C1CCN(C(=O)OCc2ccccc2)CC1 [fragment 24, 1-Benzyl 4-(pentafluorophenyl) piperidine-1,4-dicarboxylate]
isoTOP-ABPP reactivity ratio at lysine P26641_K227 [3]: 0.9

O=C(Oc1c(F)c(F)c(F)c(F)c1F)c1ccc2ccccc2n1 [fragment 25, Pentafluorophenyl quinoline-2-carboxylate]
isoTOP-ABPP reactivity ratio at lysine P26641_K227 [3]: 1.1 | isoTOP-ABPP reactivity ratio at lysine P60520_K46 [1]: 1.2 | isoTOP-ABPP reactivity ratio at lysine Q9BYT8_K253 [2]: 0.9

O=C(CN1C(=O)c2ccccc2C1=O)Oc1c(F)c(F)c(F)c(F)c1F [fragment 27, Pentafluorophenyl 2-(1,3-dioxoisoindolin-2-yl)acetate]
isoTOP-ABPP reactivity ratio at lysine P26641_K227 [3]: 1.2

CCn1cc(C(=O)Oc2c(F)c(F)c(F)c(F)c2F)c(=O)c2ccc(C)nc21 [fragment 28, Pentafluorophenyl 1-ethyl-7-methyl-4-oxo-1,4-dihydro-1,8-naphthyridine-3-carboxylate]
isoTOP-ABPP reactivity ratio at lysine P26641_K227 [3]: 15.0 | isoTOP-ABPP reactivity ratio at lysine P05141_K23 [4]: 1.0

O=C(CCc1cn(-c2ccccc2)nc1-c1ccccc1)Oc1ccc([N+](=O)[O-])cc1[N+](=O)[O-] [fragment 29, 2,4-Dinitrophenyl 3-(1,3-diphenyl-1H-pyrazol-4-yl)propanoate]
isoTOP-ABPP reactivity ratio at lysine P26641_K227 [3]: 0.7 | isoTOP-ABPP reactivity ratio at lysine P60520_K46 [1]: 0.9 | isoTOP-ABPP reactivity ratio at lysine Q9BYT8_K253 [2]: 1.0 | isoTOP-ABPP reactivity ratio at lysine P05141_K23 [4]: 1.5

Cn1cc(CC(=O)Oc2ccc([N+](=O)[O-])cc2[N+](=O)[O-])c2ccccc21 [fragment 32, 2,4-Dinitrophenyl 2-(1-methyl-1H-indol-3-yl)acetate]
isoTOP-ABPP reactivity ratio at lysine P60520_K46 [1]: 1.1 | isoTOP-ABPP reactivity ratio at lysine Q9BYT8_K253 [2]: 1.7 | isoTOP-ABPP reactivity ratio at lysine P05141_K23 [4]: 1.8

O=C(Oc1ccc([N+](=O)[O-])cc1[N+](=O)[O-])C1CCN(C(=O)OCc2ccccc2)CC1 [fragment 34, 1-Benzyl 4-(2,4-dinitrophenyl) piperidine-1,4-dicarboxylate]
isoTOP-ABPP ratio (R) at liganded lysine P05141_K23 [4]: 1.1

O=C(Oc1ccc([N+](=O)[O-])cc1[N+](=O)[O-])c1ccc2ccccc2n1 [fragment 35, 2,4-Dinitrophenyl quinoline-2-carboxylate]
isoTOP-ABPP ratio (R) at liganded lysine P60520_K46 [1]: 0.9 | isoTOP-ABPP ratio (R) at liganded lysine Q9BYT8_K253 [2]: 1.1 | isoTOP-ABPP ratio (R) at liganded lysine P05141_K23 [4]: 1.1

O=C(CCc1coc2cc(F)ccc2c1=O)Oc1ccc([N+](=O)[O-])cc1[N+](=O)[O-] [fragment 36, 2,4-Dinitrophenyl 3-(7-fluoro-4-oxo-4H-chromen-3-yl)propanoate]
isoTOP-ABPP ratio (R) at liganded lysine P05141_K23 [4]: 1.1

O=C(CC12CC3CC(CC(C3)C1)C2)Oc1ccc([N+](=O)[O-])cc1[N+](=O)[O-] [fragment 38, 2,4-Dinitrophenyl 2-(adamantan-1-yl)acetate]
isoTOP-ABPP ratio (R) at liganded lysine P60520_K46 [1]: 1.0 | isoTOP-ABPP ratio (R) at liganded lysine Q9BYT8_K253 [2]: 0.8 | isoTOP-ABPP ratio (R) at liganded lysine P05141_K23 [4]: 1.1

O=C(Oc1ccc([N+](=O)[O-])cc1[N+](=O)[O-])c1ccccc1Nc1cccc(C(F)(F)F)c1 [fragment 40, 2,4-Dinitrophenyl 2-((3-(trifluoromethyl)phenyl)amino)benzoate]
isoTOP-ABPP ratio (R) at liganded lysine Q9BYT8_K253 [2]: 0.9 | isoTOP-ABPP ratio (R) at liganded lysine P05141_K23 [4]: 0.8

O=C(Oc1ccc([N+](=O)[O-])cc1[N+](=O)[O-])C(c1ccccc1)(c1ccccc1)c1ccccc1 [fragment 42, 2,4-Dinitrophenyl 2,2,2-triphenylacetate]
isoTOP-ABPP ratio (R) at liganded lysine P26641_K227 [3]: 0.7 | isoTOP-ABPP ratio (R) at liganded lysine P60520_K46 [1]: 0.9 | isoTOP-ABPP ratio (R) at liganded lysine Q9BYT8_K253 [2]: 0.8 | isoTOP-ABPP ratio (R) at liganded lysine P05141_K23 [4]: 1.1

CC(=O)Oc1ccc([N+](=O)[O-])cc1[N+](=O)[O-] [fragment 43, 2,4-Dinitrophenyl acetate]
isoTOP-ABPP ratio (R) at liganded lysine P26641_K227 [3]: 2.3 | isoTOP-ABPP ratio (R) at liganded lysine Q9BYT8_K253 [2]: 0.8 | isoTOP-ABPP ratio (R) at liganded lysine P05141_K23 [4]: 0.9

N#Cc1ccc(C(=O)Oc2ccc([N+](=O)[O-])cc2[N+](=O)[O-])cc1 [fragment 44, 2,4-Dinitrophenyl 4-cyanobenzoate]
isoTOP-ABPP ratio, lysine P26641_K227 ([3]; 50 uM_231_sol_in vitro): 0.8 | isoTOP-ABPP ratio, lysine P60520_K46 ([1]; 50 uM_231_sol_in vitro): 0.9 | isoTOP-ABPP ratio, lysine P05141_K23 ([4]; 50 uM_231_sol_in vitro): 1.1

O=C(ON1C(=O)CCC1=O)c1cc(C(F)(F)F)cc(C(F)(F)F)c1 [fragment 46, 3,5-Bis(trifluoromethyl)benzoic acid NHS ester]
isoTOP-ABPP ratio, lysine P26641_K227 ([3]; 50 uM_231_sol_in vitro): 0.6 | isoTOP-ABPP ratio, lysine Q9BYT8_K253 ([2]; 50 uM_231_sol_in vitro): 1.5 | isoTOP-ABPP ratio, lysine P05141_K23 ([4]; 50 uM_231_sol_in vitro): 0.9

O=C(Oc1c(F)c(F)cc(F)c1F)c1cc(C(F)(F)F)cc(C(F)(F)F)c1 [fragment 48, 2,3,5,6-Tetrafluorophenyl 3,5-bis(trifluoromethyl)benzoate]
isoTOP-ABPP ratio, lysine P60520_K46 ([1]; 50 uM_231_sol_in vitro): 0.9 | isoTOP-ABPP ratio, lysine P05141_K23 ([4]; 50 uM_231_sol_in vitro): 1.2

COC(=O)NC(=NC(=O)OCC1c2ccccc2-c2ccccc21)n1cccn1 [fragment 49, N-Methoxycarbonyl-N′-9-fluorenylmethoxycarbonyl-pyrazole-1-carboxamidine]
isoTOP-ABPP ratio, lysine P60520_K46 ([1]; 100 uM_231_sol_in vitro): 1.9

CC(C)(C)OC(=O)N=C(NC(=O)OC(C)(C)C)n1cccn1 [fragment 50, reference compound]
isoTOP-ABPP ratio, lysine P26641_K227 ([3]; 100 uM_231_sol_in vitro): 1.2 | isoTOP-ABPP ratio, lysine P60520_K46 ([1]; 100 uM_231_sol_in vitro): 20.0 | isoTOP-ABPP ratio, lysine Q9BYT8_K253 ([2]; 100 uM_231_sol_in vitro): 1.2 | isoTOP-ABPP ratio, lysine P05141_K23 ([4]; 100 uM_231_sol_in vitro): 12.6
